Legend:
[1] = Solubility in saline or DI water at room temperature (visual inspection); assay type: physicochemical
[2] = Stability in DMSO or DI water at 37° C. (purity by LC/MS and HPLC); assay type: physicochemical
[3] = Acute food intake inhibition in Long Evans rats after bolus SC dosing (BioDAQ); assay type: in vivo, rat; conditions: 30 mcg SC bolus

solubility ([1]; Solubility (mg/mL) in DI water) [mg/mL]	solubility ([1]; Solubility (mg/mL) in saline) [mg/mL]	SMILES	further results
> 78	> 75	CC[C@H](C)[C@H](NC(=O)[C@H](Cc1ccccc1)NC(=O)[C@H](CCC(=O)O)NC(=O)[C@H](CCCNC(=N)N)NC(=O)[C@H](C)NC(=O)[C@H](C)NC(=O)[C@H](CCC(=O)O)NC(=O)[C@H](CCCCNC(=O)CC[C@H](NC(=O)CC[C@H](NC(=O)COCCOCCNC(=O)CC[C@H](NC(=O)CC[C@H](NC(=O)CCCCCCCCCCCCCCCCCCC(=O)O)C(=O)O)C(=O)O)C(=O)O)C(=O)O)NC(=O)[C@H](CCC(=O)O)NC(=O)[C@H](Cc1ccc(O)cc1)NC(=O)[C@H](CCC(N)=O)NC(=O)[C@H](CCC(=O)O)NC(=O)[C@H](CO)NC(=O)[C@@H](NC(=O)[C@H](CC(=O)O)NC(=O)[C@H](CO)NC(=O)[C@@H](NC(=O)[C@H](Cc1ccccc1)NC(=O)[C@@H](NC(=O)CNC(=O)[C@H](CCC(=O)O)NC(=O)C(C)(C)NC(=O)[C@@H](N)Cc1c[nH]cn1)[C@@H](C)O)[C@@H](C)O)[C@@H](C)CC)C(=O)N[C@@H](CCC(=O)O)C(=O)N[C@@H](Cc1c[nH]c2ccccc12)C(=O)N[C@@H](CC(C)C)C(=O)N[C@@H](CCCCN)C(=O)N[C@@H](CC(N)=O)C(=O)NCC(=O)NCC(=O)N1CCC[C@H]1C(=O)N[C@@H](CO)C(=O)N[C@@H](CO)C(=O)NCC(=O)N[C@@H](C)C(=O)N1CCC[C@H]1C(=O)N1CCC[C@H]1C(=O)N1CCC[C@H]1C(=O)N[C@@H](CO)C(N)=O [Compound A80]	
> 128	> 133	CC[C@H](C)[C@H](NC(=O)[C@H](Cc1ccccc1)NC(=O)[C@H](CCC(N)=O)NC(=O)[C@H](CCCNC(=N)N)NC(=O)[C@@H](NC(=O)[C@H](C)NC(=O)[C@H](CCC(=O)O)NC(=O)[C@H](CCCCNC(=O)CC[C@H](NC(=O)CC[C@H](NC(=O)COCCOCCNC(=O)CCCCCCCCCCCCCCCCCCC(=O)O)C(=O)O)C(=O)O)NC(=O)[C@H](CCC(=O)O)NC(=O)[C@H](Cc1ccc(O)cc1)NC(=O)[C@H](CCC(N)=O)NC(=O)[C@H](CCCCN)NC(=O)[C@H](CO)NC(=O)[C@H](CC(C)C)NC(=O)[C@H](CC(=O)O)NC(=O)[C@H](CO)NC(=O)[C@@H](NC(=O)[C@H](Cc1ccccc1)NC(=O)[C@@H](NC(=O)CNC(=O)[C@H](CCC(=O)O)NC(=O)C(C)(C)NC(=O)[C@@H](N)Cc1c[nH]cn1)[C@@H](C)O)[C@@H](C)O)C(C)C)C(=O)N[C@@H](CO)C(=O)N[C@@H](Cc1c[nH]c2ccccc12)C(=O)N[C@@H](CC(C)C)C(=O)N[C@@H](CCCCN)C(=O)N[C@@H](CC(N)=O)C(=O)NCC(=O)NCC(=O)N1CCC[C@H]1C(=O)N[C@@H](CO)C(=O)N[C@@H](CO)C(=O)NCC(=O)N[C@@H](C)C(=O)N1CCC[C@H]1C(=O)N1CCC[C@H]1C(=O)N1CCC[C@H]1C(=O)N[C@@H](CO)C(N)=O [Compound A96]	

The next lines start with the compound.

SMILES	solubility ([1]; Solubility (mg/mL) in DI water) [mg/mL]	solubility ([1]; Solubility (mg/mL) in saline) [mg/mL]	further results
CC[C@H](C)[C@H](NC(=O)[C@H](Cc1ccccc1)NC(=O)[C@H](CCC(=O)O)NC(=O)[C@H](CCCNC(=N)N)NC(=O)[C@H](C)NC(=O)[C@H](C)NC(=O)[C@H](CCC(=O)O)NC(=O)[C@H](CCNC(=O)CC[C@H](NC(=O)CC[C@H](NC(=O)COCCOCCNC(=O)CC[C@H](NC(=O)CC[C@H](NC(=O)CCCCCCCCCCCCCCCCCCC(=O)O)C(=O)O)C(=O)O)C(=O)O)C(=O)O)NC(=O)[C@H](CCC(=O)O)NC(=O)[C@H](Cc1ccc(O)cc1)NC(=O)[C@H](CCC(N)=O)NC(=O)[C@H](CCCCN)NC(=O)[C@H](CO)NC(=O)[C@H](CC(C)C)NC(=O)[C@H](CC(=O)O)NC(=O)[C@H](CO)NC(=O)[C@@H](NC(=O)[C@H](Cc1ccccc1)NC(=O)[C@@H](NC(=O)CNC(=O)[C@H](CCC(=O)O)NC(=O)C(C)(C)NC(=O)[C@@H](N)Cc1c[nH]cn1)[C@@H](C)O)[C@@H](C)O)C(=O)N[C@@H](CCC(=O)O)C(=O)N[C@@H](Cc1c[nH]c2ccccc12)C(=O)N[C@@H](CC(C)C)C(=O)N[C@@H](CCCCN)C(=O)N[C@@H](CC(N)=O)C(=O)NCC(=O)NCC(=O)N1CCC[C@H]1C(=O)N[C@@H](CO)C(=O)N[C@@H](CO)C(=O)NCC(=O)N[C@@H](C)C(=O)N1CCC[C@H]1C(=O)N1CCC[C@H]1C(=O)N1CCC[C@H]1C(=O)N[C@@H](CO)C(N)=O [Compound A72]			Stability @ 37° C. (% purity) Day 14 [2]: 98.7%; Stability @ RT (% purity) Day 28 [2]: 95.1%
CC[C@H](C)[C@H](NC(=O)[C@H](Cc1ccccc1)NC(=O)[C@H](CCC(=O)O)NC(=O)[C@H](CCCNC(=N)N)NC(=O)[C@@H](NC(=O)[C@H](C)NC(=O)[C@H](CCC(=O)O)NC(=O)[C@H](CCCCNC(=O)CC[C@H](NC(=O)CC[C@H](NC(=O)COCCOCCNC(=O)CCCCCCCCCCCCCCCCCCC(=O)O)C(=O)O)C(=O)O)NC(=O)[C@H](CCC(=O)O)NC(=O)[C@H](Cc1ccc(O)cc1)NC(=O)[C@H](CCC(N)=O)NC(=O)[C@H](CCCCN)NC(=O)[C@H](CO)NC(=O)[C@H](CC(C)C)NC(=O)[C@H](CC(=O)O)NC(=O)[C@H](CO)NC(=O)[C@@H](NC(=O)[C@H](Cc1ccccc1)NC(=O)[C@@H](NC(=O)CNC(=O)[C@H](CCC(=O)O)NC(=O)C(C)(C)NC(=O)[C@@H](N)Cc1c[nH]cn1)[C@@H](C)O)[C@@H](C)O)C(C)C)C(=O)N[C@@H](CCC(=O)O)C(=O)N[C@@H](Cc1c[nH]c2ccccc12)C(=O)N[C@@H](CC(C)C)C(=O)N[C@@H](CCCCN)C(=O)N[C@@H](CC(N)=O)C(=O)NCC(=O)NCC(=O)N1CCC[C@H]1C(=O)N[C@@H](Cc1c[nH]cn1)C(=O)N[C@@H](CO)C(=O)NCC(=O)N[C@@H](C)C(=O)N1CCC[C@H]1C(=O)N1CCC[C@H]1C(=O)N1CCC[C@H]1C(=O)N[C@@H](CO)C(N)=O [Compound A152]	> 109	> 101	
CC[C@H](C)[C@H](NC(=O)[C@H](Cc1ccccc1)NC(=O)[C@H](CCCCN)NC(=O)[C@H](CCCNC(=N)N)NC(=O)[C@H](C)NC(=O)[C@H](C)NC(=O)[C@H](CCC(=O)O)NC(=O)[C@H](CCCCNC(=O)CC[C@H](NC(=O)CC[C@H](NC(=O)COCCOCCNC(=O)CCCCCCCCCCCCCCCCCCC(=O)O)C(=O)O)C(=O)O)NC(=O)[C@H](CCC(=O)O)NC(=O)[C@H](Cc1ccc(O)cc1)NC(=O)[C@H](CCC(N)=O)NC(=O)[C@H](CCCCN)NC(=O)[C@H](CO)NC(=O)[C@H](CC(C)C)NC(=O)[C@H](CC(=O)O)NC(=O)[C@H](CO)NC(=O)[C@@H](NC(=O)[C@H](Cc1ccccc1)NC(=O)[C@@H](NC(=O)CNC(=O)[C@H](CCC(=O)O)NC(=O)C(C)(C)NC(=O)[C@@H](N)Cc1c[nH]cn1)[C@@H](C)O)[C@@H](C)O)C(=O)N[C@@H](CO)C(=O)N[C@@H](Cc1c[nH]c2ccccc12)C(=O)N[C@@H](CC(C)C)C(=O)N[C@@H](CCCCN)C(=O)N[C@@H](CC(N)=O)C(=O)NCC(=O)NCC(=O)N1CCC[C@H]1C(=O)N[C@@H](Cc1c[nH]cn1)C(=O)N[C@@H](CO)C(=O)NCC(=O)N[C@@H](C)C(=O)N1CCC[C@H]1C(=O)N1CCC[C@H]1C(=O)N1CCC[C@H]1C(=O)N[C@@H](CO)C(N)=O [Compound A62]			% Food Intake Inhibition from Vehicle, 0-24 hr ([3]; 0-24 hr): −37.1%; % Food Intake Inhibition from Vehicle, 25-48 hr ([3]; 25-48 hr): −48.8%; % Food Intake Inhibition from Vehicle, 49-72 hr ([3]; 49-72 hr): −47.4%; % Food Intake Inhibition from Vehicle, 73-96 hr ([3]; 73-96 hr): 19.5%
